Assay results from patent US12527849B2, “Apparatus for determining administration form of a composition of an engineered virus-based nanoparticle for a treatment of an autoimmune condition” (Diamante Srl, priority 2021, dated 2026).

System: NOD mice
Experiment: Diabetes-free survival of NOD mice (Kaplan-Meier analysis, log-rank test)
Format: in vivo
Conditions: two i.p. treatments, 2 weeks between doses, 50 μg per mouse
Excerpt: With continued reference to FIG. 1, as another non-limiting example, administration 116 of composition of the engineered virus-based nanoparticle for a treatment of an autoimmune disease may be done to nonobese diabetic (NOD) mice. In another non-limiting example, administration 116 of composition of the engineered virus-based nanoparticle for a treatment of an autoimmune disease may be done to any animal disclosed in this disclosure, such as but not limited to a human. Four-week-old female NOD mice may be obtained from Charles River Laboratories and may be housed under specific pathogen-free conditions in the animal facility at the University of Perugia, with ad libitum access to water and food. NOD mice may be randomly subdivided into four groups. In group 1 (n=18), CPMV·p524opt [50 μg per mouse, resuspended in 100 μl of phosphate-buffered saline (PBS)] may be injected twice intraperitoneally, with 2 weeks between doses. […] Mice may be monitored for the appearance of clinical signs of diabetes and may be euthanized when the disease was confirmed by glucosuria. […]
With continued reference to FIG. 1, in some embodiments, processor 104 may determine critical administration 124 as a function of a statistical comparison between administration groups 132. […] As a non-limiting example, a Kaplan-Meier analysis may be calculated using the following formula: […]

For “p524opt: p524 sequence adjusted to a pI of 8.59 (SEQ ID NO. 2), synthetic peptide given with IFA (DSRLSKVAPVIKARMMED)”, the “protection from the onset of diabetes (in words)” value was “no protective effect”.
